Earlier results as cited in paper PMC12287436 (Scientific Reports, 2025).
Where a name gives a salt, the structure may show the parent alone.

Conditions: rabbits; 2% instillation dose

SMILES: CCN[C@H]1C[C@H](C)S(=O)(=O)c2sc(S(N)(=O)=O)cc21 [dorzolamide hydrochloride]
- Retinal concentration: 2.8 µM
